Measurements: EP4775570A1, “CYP11A1 INHIBITOR, PREPARATION METHOD THEREFOR AND USE THEREOF” (Shenzhen Zhongge Biological Technology Co., Ltd., priority 2023, dated 2025)

Tests used:
hERG channels = biological target: T1, hERG channels (Homo sapiens, UniProt Q12809); test: hERG testing, manual whole cell patch clamp; type: cell-based; settings: IC50, hERG tail current, room temperature (~25°C), 0.1-30 µM
T1 construct: host or cells: HEK293
Procedure: The cells used in this experiment were HEK293 cell lines transfected with hERG cDNA and stably expressing hERG channels (#60187, provided by BPS Bioscience Inc., P3-P23 generations were used in the experiment). The cells were cultured in a culture medium containing the following components: MEM medium, 10% (v/v) inactivated fetal bovine serum, 1 mM sodium pyruvate, 500µg/ml geneticin, 0.1mM non-essential amino acid, 100U/ml penicillin-streptomycin. HEK293 hERG cells were grown in petri dishes containing the aforementioned culture medium and cultured in an incubator at 37°C and 5% CO2, passaged approximately three times a week and maintained at a cell fusion rate between 40% and 80%. […]
The electrophysiological experiment was carried out using a manual patch clamp system (HEKA EPC-10 signal amplifier and digital conversion system, HEKA Electronics, Germany) to record the whole cell currents. […] Only when the hERG potassium current recorded in the previous step achieved stable state under continuous extracellular fluid perfusion within the recording chamber, could the compound to be tested be continuously perfused until the inhibitory effect of the compound on the hERG current reaches a stable state. […]

[1] = LC-MS detection of concentrations of tested compounds in mouse plasma, tumors and adrenal glands; type: in vivo; settings: compound + prednisone group vs ODM-208 + prednisone group of the VCaP model
Text: (§1) • Mouse tumors were homogenized using PBS in a 1:5 ratio (tumor weight (g): PBS volume (mL), w/v); • Mouse adrenal glands were homogenized using PBS in a 1:10 ratio (adrenal gland weight (g): PBS volume (mL), w/v); • Standard sample: testosterone (LGC, C17322500), progesterone (MCE, HY-N0437), adrenal ketone (MCE, HY-B1618), and standard solution of test substance.
Concentrations of tested compounds in mouse plasma, tumors and adrenal glands: The multiple reaction monitoring (MRM) method was used to detect the concentrations in mouse plasma, tumors and adrenal glands. Mass spectrum: AB Sciex Triple Quad 6500+, liquid chromatography: Shimadzu 40A, column: XBridge BEH C18 2.5 µm 2.1*50mm, ODM208 ion pair: 419.20/176.20, tested compounds ion pair: 429.20/200.20. Acetonitrile was used as precipitant, and propranolol diclofenac were used as the internal standard for sample pretreatment in plasma, tumor, and adrenal tissue. The linear ranges of the standard in plasma tissue was 0.5-1000 ng/mL, the linear ranges of the standard in tumor tissue was 3-6000 ng/mL, and the linear ranges of the standard in adrenal tissue was 5.5-11000 ng/mL.

[2] = system: testosterone, progesterone, corticosterone; test: LC-MS detection of testosterone, progesterone and corticosterone in mouse tumors and adrenal glands; type: in vivo; settings: VCaP model; for secretion of testosterone, progesterone and corticosterone in tumors and adrenal glands (in words): mouse tumors and adrenal glands
Text: as §1
Experiment procedures: since the three markers, i.e., testosterone, progesterone, and adrenal ketone, are all endogenous substances and present in the blank matrix as well, PBS was alternatively used as matrix in the production of the standard curve.
Testosterone: multiple reaction monitoring (MRM) method was used for detecting the concentrations of testosterone in mouse tumors and adrenal glands. Mass spectrum: AB Sciex Triple Quad 6500+; liquid chromatography: Shimadzu 40A, column: Waters XBridge BEH C18 2.5 µm 2.1*50mm, testosterone ion pair: 289.4/97.2. Both tumor and adrenal tissues were treated with methanol as precipitant and tolbutamide as internal standard for sample pretreatment, with linear range in 50-50,000pg/mL.
Progesterone and corticosterone: multi-reaction detection method (MRM) was used for detecting the concentrations of progesterone and corticosterone in mouse tumors and adrenal glands. Mass spectrum: AB Sciex Triple Quad 6500+; liquid chromatography: Shimadzu 40A, column: Waters XSelect HSS T3 2.5 µm 2.1*50mm, progesterone ion pair: 315.4/97.2, adrenone ion pair: 347.4/121.3. For tumor tissues, acetonitrile was used as precipitant and propranolol diclofenac as internal standard for sample pretreatment, with linear ranges in 0.05-10 ng/mL of progesterone and 0.10-20 ng/mL of corticosterone. For adrenal tissues, methanol was used as precipitant and propranolol diclofenac as internal standard for sample pretreatment, with linear ranges in 5-2,500 ng/mL of progesterone and 5-2,500 ng/mL of corticosterone.

T1 sequence (Q12809 whole entry): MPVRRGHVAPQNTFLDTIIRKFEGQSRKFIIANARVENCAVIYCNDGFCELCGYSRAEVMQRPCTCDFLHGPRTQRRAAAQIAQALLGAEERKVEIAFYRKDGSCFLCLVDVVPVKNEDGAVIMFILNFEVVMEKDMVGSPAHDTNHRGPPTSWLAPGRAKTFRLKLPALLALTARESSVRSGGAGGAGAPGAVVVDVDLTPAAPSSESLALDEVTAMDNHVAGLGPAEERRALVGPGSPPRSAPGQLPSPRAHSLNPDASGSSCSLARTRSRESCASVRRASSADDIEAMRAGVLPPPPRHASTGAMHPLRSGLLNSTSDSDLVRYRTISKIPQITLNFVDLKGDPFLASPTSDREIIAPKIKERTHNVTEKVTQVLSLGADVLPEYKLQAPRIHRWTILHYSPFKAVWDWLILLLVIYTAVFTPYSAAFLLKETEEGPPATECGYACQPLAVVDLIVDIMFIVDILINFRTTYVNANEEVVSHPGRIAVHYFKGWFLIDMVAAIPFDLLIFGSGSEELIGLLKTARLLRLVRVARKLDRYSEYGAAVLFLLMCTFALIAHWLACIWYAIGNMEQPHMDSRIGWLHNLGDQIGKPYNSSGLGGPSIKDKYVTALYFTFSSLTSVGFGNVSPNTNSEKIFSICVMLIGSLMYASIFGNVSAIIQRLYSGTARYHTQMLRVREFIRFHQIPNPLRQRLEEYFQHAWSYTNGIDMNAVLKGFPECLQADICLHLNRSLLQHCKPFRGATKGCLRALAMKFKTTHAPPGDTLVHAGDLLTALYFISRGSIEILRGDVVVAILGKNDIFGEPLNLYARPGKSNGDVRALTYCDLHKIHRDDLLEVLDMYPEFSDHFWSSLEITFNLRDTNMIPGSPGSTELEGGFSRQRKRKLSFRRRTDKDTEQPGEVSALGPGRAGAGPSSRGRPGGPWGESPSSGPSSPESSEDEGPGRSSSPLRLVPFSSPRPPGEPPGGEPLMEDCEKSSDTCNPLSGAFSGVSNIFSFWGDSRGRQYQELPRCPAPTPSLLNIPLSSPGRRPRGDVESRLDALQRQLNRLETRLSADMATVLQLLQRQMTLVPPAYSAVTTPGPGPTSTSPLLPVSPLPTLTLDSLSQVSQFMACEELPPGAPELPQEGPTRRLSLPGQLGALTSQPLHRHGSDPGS

Row | drug concentration in adrenal glands relative to ODM-208 [1] | drug concentration in plasma relative to ODM-208 [1] | drug concentration in tumors relative to ODM-208 [1] | SMILES | IC50 (hERG channels) | secretion of progesterone in the adrenal glands (in words) ([2]; adrenal glands of mice, vs control group) | secretion of testosterone, progesterone and corticosterone in tumors and adrenal glands (in words) [2] | concentration of progesterone in the adrenal glands, relative to ODM-208 ([2]; adrenal glands, fraction of the ODM-208 group) | concentration of testosterone in the tumors, relative to the ODM-208 group ([2]; tumors, fraction of the ODM-208 group)
1 | – | – | – | Cn1c(CN2Cc3ccccc3C2)c(F)cc(C=CC2CCN(C(=O)CC#N)CC2)c1=O [compound 112] | > 30 µM | – | – | – | –
2 | 3.3 fold | 1.6 fold | 3.6 fold | Cn1c(CN2Cc3ccccc3C2)c(F)cc(CCC2CCN(S(C)(=O)=O)CC2)c1=O [compound 72] | > 30 µM | significant inhibitory effect | significantly inhibited | – | –
3 | 80 fold | 3 fold | 10 fold | COc1cc(CN2Cc3ccccc3C2)ccc1CCC1CCN(S(C)(=O)=O)CC1 [compound 53] | – | – | significantly inhibited | 1/4 | 1/8
